{"source": "ChEMBL document CHEMBL4049404", "about": "“Discovery of (R)-1-(3-(4-Amino-3-(3-chloro-4-(pyridin-2-ylmethoxy)phenyl)-1H-pyrazolo[3,4-d]pyrimidin-1-yl)piperidin-1-yl)prop-2-en-1-one (CHMFL-EGFR-202) as a Novel Irreversible EGFR Mutant Kinase Inhibitor with a Distinct Binding Mode” (J Med Chem, 2017)", "key": {"[1]": {"molecular_target": "T1, Epidermal growth factor receptor (Homo sapiens, UniProt P00533)", "T1 sequence (P00533 whole entry)": "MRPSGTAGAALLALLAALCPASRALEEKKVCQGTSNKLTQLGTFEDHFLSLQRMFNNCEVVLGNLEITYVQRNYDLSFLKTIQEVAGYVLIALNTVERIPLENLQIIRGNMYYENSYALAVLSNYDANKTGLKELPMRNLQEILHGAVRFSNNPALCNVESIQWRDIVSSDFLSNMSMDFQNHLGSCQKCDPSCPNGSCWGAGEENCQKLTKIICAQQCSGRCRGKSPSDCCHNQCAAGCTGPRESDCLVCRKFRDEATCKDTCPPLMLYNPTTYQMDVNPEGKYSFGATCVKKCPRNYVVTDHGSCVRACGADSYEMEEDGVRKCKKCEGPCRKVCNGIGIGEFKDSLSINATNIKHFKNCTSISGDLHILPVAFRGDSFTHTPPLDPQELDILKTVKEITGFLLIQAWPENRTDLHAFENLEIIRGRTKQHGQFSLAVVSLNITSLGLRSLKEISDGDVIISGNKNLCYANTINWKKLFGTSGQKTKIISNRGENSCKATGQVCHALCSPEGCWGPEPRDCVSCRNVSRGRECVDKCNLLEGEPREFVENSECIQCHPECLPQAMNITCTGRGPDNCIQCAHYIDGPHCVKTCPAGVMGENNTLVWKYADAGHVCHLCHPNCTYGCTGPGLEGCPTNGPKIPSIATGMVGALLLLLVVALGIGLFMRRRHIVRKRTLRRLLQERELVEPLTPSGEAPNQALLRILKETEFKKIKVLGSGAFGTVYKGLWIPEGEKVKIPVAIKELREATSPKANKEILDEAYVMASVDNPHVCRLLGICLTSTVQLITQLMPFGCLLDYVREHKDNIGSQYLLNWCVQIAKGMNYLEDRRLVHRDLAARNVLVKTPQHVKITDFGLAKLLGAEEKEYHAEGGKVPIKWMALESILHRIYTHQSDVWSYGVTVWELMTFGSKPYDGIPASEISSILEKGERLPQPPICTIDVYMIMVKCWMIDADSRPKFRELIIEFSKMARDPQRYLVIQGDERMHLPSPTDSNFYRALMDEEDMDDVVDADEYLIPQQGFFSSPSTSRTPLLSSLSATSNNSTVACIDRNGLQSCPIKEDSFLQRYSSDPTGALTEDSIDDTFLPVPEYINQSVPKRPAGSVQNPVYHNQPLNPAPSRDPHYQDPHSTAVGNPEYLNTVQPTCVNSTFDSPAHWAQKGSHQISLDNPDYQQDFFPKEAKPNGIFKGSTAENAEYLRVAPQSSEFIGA", "assay": "Inhibition of wild-type EGFR in human NCI-H2122 cells assessed as reduction in 4EBP1 phosphorylation at Thr37/46 site at 0.01 to 3 uM by Western blot analysis", "format": "cell-based"}, "[2]": {"assay": "MRT (0 to infinity) in Sprague-Dawley rat plasma at 1 mg/kg, iv after 8 hrs", "format": "ADME, organism-based"}, "[3]": {"molecular_target": "T1, Epidermal growth factor receptor", "assay": "Inhibition of wild-type EGFR in human NCI-H2122 cells assessed as reduction in STAT3 phosphorylation at Y705 site at 0.01 to 3 uM by Western blot analysis", "format": "cell-based"}, "[4]": {"assay": "Half life in Sprague-Dawley rat plasma at 10 mg/kg, po after 24 hrs", "format": "ADME, organism-based"}, "[5]": {"molecular_target": "T1, Epidermal growth factor receptor", "assay": "Inhibition of wild-type EGFR in human NCI-H2122 cells assessed as reduction in Akt phosphorylation at 473 site at 0.01 to 3 uM by Western blot analysis", "format": "cell-based"}, "[6]": {"molecular_target": "T1, Epidermal growth factor receptor", "assay": "Inhibition of wild-type EGFR in human NCI-H2122 cells assessed as growth inhibition after 72 hrs by CellTiter-Glo assay", "format": "cell-based"}, "[7]": {"molecular_target": "Cytoplasmic tyrosine-protein kinase BMX (Homo sapiens) (UniProt P51813)", "sequence (P51813 whole entry)": "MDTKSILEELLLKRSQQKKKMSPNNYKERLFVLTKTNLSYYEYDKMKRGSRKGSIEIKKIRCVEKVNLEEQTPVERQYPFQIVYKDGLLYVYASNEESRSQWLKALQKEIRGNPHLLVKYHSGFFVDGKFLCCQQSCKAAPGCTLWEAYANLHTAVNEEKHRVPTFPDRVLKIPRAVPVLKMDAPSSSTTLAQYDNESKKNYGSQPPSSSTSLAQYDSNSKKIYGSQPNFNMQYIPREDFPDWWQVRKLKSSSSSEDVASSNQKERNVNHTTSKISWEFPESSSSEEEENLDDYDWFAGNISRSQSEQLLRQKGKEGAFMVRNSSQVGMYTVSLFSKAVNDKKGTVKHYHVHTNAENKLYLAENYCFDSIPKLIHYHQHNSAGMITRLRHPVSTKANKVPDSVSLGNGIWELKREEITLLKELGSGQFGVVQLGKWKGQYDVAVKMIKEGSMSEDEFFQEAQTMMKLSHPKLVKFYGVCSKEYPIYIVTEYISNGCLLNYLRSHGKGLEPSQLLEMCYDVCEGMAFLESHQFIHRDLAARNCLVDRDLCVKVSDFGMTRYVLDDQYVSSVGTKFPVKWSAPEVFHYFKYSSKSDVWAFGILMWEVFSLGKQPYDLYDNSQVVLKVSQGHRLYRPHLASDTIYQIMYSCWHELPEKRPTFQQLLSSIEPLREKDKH", "assay": "Binding affinity to wild-type human BMX expressed in bacterial system assessed as control score at 1 uM by KINOMEScan assay"}, "[8]": {"molecular_target": "T2, Epidermal growth factor receptor (Homo sapiens, UniProt P00533, L858R/T790M)", "T2 sequence (P00533 25-1210 T790M/L858R limits assumed)": "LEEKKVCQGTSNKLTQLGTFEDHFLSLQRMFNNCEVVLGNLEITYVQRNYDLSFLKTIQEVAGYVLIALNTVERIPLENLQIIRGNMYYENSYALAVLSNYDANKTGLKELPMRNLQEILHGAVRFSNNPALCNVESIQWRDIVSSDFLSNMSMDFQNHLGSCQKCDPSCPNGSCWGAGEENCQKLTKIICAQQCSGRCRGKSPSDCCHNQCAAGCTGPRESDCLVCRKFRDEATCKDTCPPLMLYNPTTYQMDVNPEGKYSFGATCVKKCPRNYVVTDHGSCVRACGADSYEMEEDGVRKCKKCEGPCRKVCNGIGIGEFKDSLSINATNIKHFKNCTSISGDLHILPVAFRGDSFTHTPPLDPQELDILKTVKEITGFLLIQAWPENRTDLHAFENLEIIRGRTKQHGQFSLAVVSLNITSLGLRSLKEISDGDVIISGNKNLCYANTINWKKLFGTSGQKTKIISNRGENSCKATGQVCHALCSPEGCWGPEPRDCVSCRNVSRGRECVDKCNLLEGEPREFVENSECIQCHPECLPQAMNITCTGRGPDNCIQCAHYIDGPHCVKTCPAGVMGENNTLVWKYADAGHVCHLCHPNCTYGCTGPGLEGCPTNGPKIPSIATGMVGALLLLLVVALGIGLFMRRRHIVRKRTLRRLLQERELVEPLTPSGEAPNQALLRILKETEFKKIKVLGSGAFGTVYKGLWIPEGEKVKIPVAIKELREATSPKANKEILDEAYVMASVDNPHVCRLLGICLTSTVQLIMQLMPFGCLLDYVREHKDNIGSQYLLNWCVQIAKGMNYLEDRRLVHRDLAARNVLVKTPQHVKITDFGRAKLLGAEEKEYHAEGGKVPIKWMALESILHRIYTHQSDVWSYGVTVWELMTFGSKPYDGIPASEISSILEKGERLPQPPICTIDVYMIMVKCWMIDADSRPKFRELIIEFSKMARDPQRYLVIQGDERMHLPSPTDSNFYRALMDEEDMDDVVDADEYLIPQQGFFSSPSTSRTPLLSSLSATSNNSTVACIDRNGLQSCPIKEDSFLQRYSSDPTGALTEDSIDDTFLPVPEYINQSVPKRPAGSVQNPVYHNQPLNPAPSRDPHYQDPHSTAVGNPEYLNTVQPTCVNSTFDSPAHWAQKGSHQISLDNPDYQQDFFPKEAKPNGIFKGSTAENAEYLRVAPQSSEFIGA", "assay": "Inhibition of EGFR T790M/L858R mutant (unknown origin) autophosphorylation at Y1068 expressed in mouse BAF3 cells after 4 hrs by Western blot analysis", "format": "cell-based"}, "[9]": {"molecular_target": "T1, Epidermal growth factor receptor", "assay": "Inhibition of wild-type EGFR in human NCI-H2122 cells assessed as reduction in ERK phosphorylation at Thr202/Tyr204 site at 0.01 to 3 uM by Western blot analysis", "format": "cell-based"}, "[10]": {"molecular_target": "T3, Tyrosine-protein kinase BTK (Homo sapiens, UniProt Q06187)", "T3 sequence (Q06187 whole entry)": "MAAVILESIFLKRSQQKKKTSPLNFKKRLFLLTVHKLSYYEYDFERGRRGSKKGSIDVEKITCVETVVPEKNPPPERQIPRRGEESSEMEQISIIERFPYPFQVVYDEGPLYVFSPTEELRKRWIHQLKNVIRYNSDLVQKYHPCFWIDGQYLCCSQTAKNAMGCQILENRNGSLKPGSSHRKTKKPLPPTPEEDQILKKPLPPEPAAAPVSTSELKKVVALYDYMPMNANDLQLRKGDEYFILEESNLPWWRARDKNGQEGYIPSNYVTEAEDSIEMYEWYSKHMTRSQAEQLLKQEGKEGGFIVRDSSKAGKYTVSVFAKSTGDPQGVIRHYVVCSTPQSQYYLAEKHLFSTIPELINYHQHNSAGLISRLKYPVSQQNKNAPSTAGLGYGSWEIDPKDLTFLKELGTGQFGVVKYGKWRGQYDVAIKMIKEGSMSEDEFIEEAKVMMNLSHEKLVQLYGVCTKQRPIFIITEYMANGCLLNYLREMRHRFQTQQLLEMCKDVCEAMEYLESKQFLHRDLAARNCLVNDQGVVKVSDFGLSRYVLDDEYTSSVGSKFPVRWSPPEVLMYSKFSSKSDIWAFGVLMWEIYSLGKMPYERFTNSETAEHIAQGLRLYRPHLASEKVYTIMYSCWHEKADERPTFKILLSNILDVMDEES", "assay": "Binding affinity to full-length wild-type human BTK expressed in mammalian system assessed as control score at 1 uM by KINOMEScan assay"}, "[11]": {"molecular_target": "T4, Dual specificity mitogen-activated protein kinase kinase 1 (Homo sapiens, UniProt Q02750)", "T4 sequence (Q02750 whole entry)": "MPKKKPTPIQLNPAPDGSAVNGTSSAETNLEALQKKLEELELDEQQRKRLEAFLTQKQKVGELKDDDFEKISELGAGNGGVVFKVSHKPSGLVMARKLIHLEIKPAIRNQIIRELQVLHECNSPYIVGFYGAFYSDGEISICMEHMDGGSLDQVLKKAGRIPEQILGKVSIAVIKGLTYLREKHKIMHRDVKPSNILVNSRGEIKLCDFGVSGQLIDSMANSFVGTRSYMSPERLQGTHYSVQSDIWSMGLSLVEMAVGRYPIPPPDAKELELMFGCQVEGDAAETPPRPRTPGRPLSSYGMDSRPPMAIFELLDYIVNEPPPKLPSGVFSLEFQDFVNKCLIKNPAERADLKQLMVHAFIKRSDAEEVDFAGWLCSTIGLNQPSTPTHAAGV", "assay": "Inhibition of full-length recombinant human His-tagged MEK1 expressed in baculovirus by Z'-LYTE assay"}, "[12]": {"molecular_target": "Receptor tyrosine-protein kinase erbB-4 (Homo sapiens, UniProt Q15303)", "assay": "Binding affinity to wild-type human ERBB4 expressed in bacterial system assessed as control score at 1 uM by KINOMEScan assay"}, "[13]": {"molecular_target": "Dual specificity mitogen-activated protein kinase kinase 5 (Homo sapiens) (UniProt Q13163)", "sequence (Q13163 whole entry)": "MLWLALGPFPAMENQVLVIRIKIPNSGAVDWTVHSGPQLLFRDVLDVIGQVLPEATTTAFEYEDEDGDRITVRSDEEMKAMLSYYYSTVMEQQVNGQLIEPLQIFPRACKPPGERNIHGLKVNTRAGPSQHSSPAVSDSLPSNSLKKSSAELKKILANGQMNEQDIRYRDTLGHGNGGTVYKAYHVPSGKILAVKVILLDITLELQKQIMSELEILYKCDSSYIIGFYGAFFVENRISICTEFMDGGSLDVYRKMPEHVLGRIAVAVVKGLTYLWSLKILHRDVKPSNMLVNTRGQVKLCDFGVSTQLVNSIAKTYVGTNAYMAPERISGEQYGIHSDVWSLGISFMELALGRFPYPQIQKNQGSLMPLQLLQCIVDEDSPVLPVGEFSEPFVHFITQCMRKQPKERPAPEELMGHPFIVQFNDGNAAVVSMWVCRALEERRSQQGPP", "assay": "Binding affinity to wild-type human MEK5 expressed in mammalian system assessed as control score at 1 uM by KINOMEScan assay"}, "[14]": {"assay": "Tmax in Sprague-Dawley rat plasma at 1 mg/kg, iv after 8 hrs", "format": "ADME, organism-based"}, "Rattus norvegicus [15]": {"system": "Rattus norvegicus", "assay": "AUC (0 to infinity) in Sprague-Dawley rat plasma at 1 mg/kg, iv after 8 hrs", "format": "ADME, organism-based", "set-up": "dose 1 mg/kg, route intravenous, time infinity", "conditions": "in vivo; call rule not given here"}, "[16]": {"assay": "Apparent plasma clearance in Sprague-Dawley rat at 1 mg/kg, iv after 8 hrs", "format": "ADME, organism-based"}, "[17]": {"molecular_target": "T1, Epidermal growth factor receptor", "assay": "Inhibition of wild-type EGFR in human A549 cells assessed as reduction in P70S6K phosphorylation at Thr389 site at 0.01 to 3 uM by Western blot analysis", "format": "cell-based", "conditions": "a549, 3 µM"}, "[18]": {"molecular_target": "Tyrosine-protein kinase Blk (Homo sapiens, UniProt P51451)", "assay": "Binding affinity to wild-type human BLK expressed in bacterial system assessed as control score at 1 uM by KINOMEScan assay"}, "[19]": {"molecular_target": "T1, Epidermal growth factor receptor", "assay": "Inhibition of wild-type EGFR in human A549 cells assessed as reduction in Akt phosphorylation at 473 site at 0.01 to 3 uM by Western blot analysis", "format": "cell-based", "conditions": "a549, 3 µM"}, "[20]": {"molecular_target": "T4, Dual specificity mitogen-activated protein kinase kinase 1", "assay": "Binding affinity to full-length human MEK1 expressed in mammalian system assessed as control score at 1 uM by KINOMEScan assay"}, "Rattus norvegicus [21]": {"system": "Rattus norvegicus", "assay": "AUC (0 to t) in Sprague-Dawley rat plasma at 1 mg/kg, iv after 8 hrs", "format": "ADME, organism-based", "set-up": "time < 8 hr, dose 1 mg/kg, route intravenous", "conditions": "in vivo"}, "[22]": {"molecular_target": "Epidermal growth factor receptor (Homo sapiens, UniProt P00533, EX19DEL)", "assay": "Inhibition of EGFR exon 19 deletion mutant in human HCC827 cells assessed as reduction in ERK phosphorylation at Thr202/Tyr204 measured after 4 hrs by Western blot analysis", "format": "cell-based"}, "Rattus norvegicus [23]": {"system": "Rattus norvegicus", "assay": "AUC (0 to infinity) in Sprague-Dawley rat plasma at 10 mg/kg, po after 24 hrs", "format": "ADME, organism-based", "set-up": "dose 10 mg/kg, time infinity, route oral", "conditions": "in vivo"}, "[24]": {"molecular_target": "T1, Epidermal growth factor receptor", "assay": "Inhibition of wild type EGFR autophosphorylation at Y1068 in human NCI-H2122 cells at 0.01 to 3 uM after 4 hrs by Western blot analysis", "format": "cell-based"}, "[25]": {"molecular_target": "T1, Epidermal growth factor receptor", "assay": "Inhibition of wild-type EGFR in human A549 cells assessed as growth inhibition after 72 hrs by CellTiter-Glo assay", "format": "cell-based", "conditions": "a549, 72 h"}, "[26]": {"assay": "MRT (0 to infinity) in Sprague-Dawley rat plasma at 10 mg/kg, po after 24 hrs", "format": "ADME, organism-based"}, "[27]": {"molecular_target": "T1, Epidermal growth factor receptor", "assay": "Inhibition of wild-type EGFR in human A549 cells assessed as reduction in STAT3 phosphorylation at Y705 site at 0.01 to 3 uM by Western blot analysis", "format": "cell-based", "conditions": "a549, 3 µM"}, "[28]": {"molecular_target": "T1, Epidermal growth factor receptor", "assay": "Inhibition of wild-type EGFR in human H1355 cells assessed as growth inhibition after 72 hrs by CellTiter-Glo assay", "format": "cell-based"}, "[29]": {"molecular_target": "Cytoplasmic tyrosine-protein kinase BMX (Homo sapiens, UniProt P51813)", "sequence (P51813 whole entry)": "as the sequence (P51813 whole entry) above", "assay": "Inhibition of full-length recombinant human His-tagged BMX expressed in baculovirus by Z'-LYTE assay"}, "[30]": {"molecular_target": "Receptor tyrosine-protein kinase erbB-2 (Homo sapiens, UniProt P04626)", "assay": "Binding affinity to wild-type human ERBB2 expressed in mammalian system assessed as control score at 1 uM by KINOMEScan assay"}, "[31]": {"molecular_target": "T2, Epidermal growth factor receptor", "assay": "Inhibition of EGFR L858R/T790M mutant in human NCI-H1975 cells assessed as reduction in ERK phosphorylation at Thr202/Tyr204 measured after 4 hrs by Western blot analysis", "format": "cell-based"}, "[32]": {"molecular_target": "Insulin receptor (Homo sapiens) (UniProt P06213)", "assay": "Inhibition of Tel-fused INSR (unknown origin) expressed in mouse BAF3 cells assessed as growth inhibition after 72 hrs by CellTiter-Glo assay", "format": "cell-based"}, "[33]": {"molecular_target": "T3, Tyrosine-protein kinase BTK", "assay": "Inhibition of full-length recombinant human His-tagged BTK cytoplasmic domain expressed in baculovirus by Z'-LYTE assay"}, "[34]": {"molecular_target": "T1, Epidermal growth factor receptor", "assay": "Inhibition of wild-type EGFR in human NCI-H2122 cells assessed as reduction in P70S6K phosphorylation at Thr389 site at 0.01 to 3 uM by Western blot analysis", "format": "cell-based"}, "[35]": {"assay": "Oral bioavailability in Sprague-Dawley rat at 10 mg/kg after 24 hrs", "format": "ADME, organism-based", "conditions": "in vivo"}, "[36]": {"molecular_target": "T1, Epidermal growth factor receptor", "assay": "Inhibition of wild-type EGFR in human NCI-H2122 cells assessed as reduction in Akt phosphorylation at 308 site at 0.01 to 3 uM by Western blot analysis", "format": "cell-based"}, "[37]": {"assay": "Half life in Sprague-Dawley rat plasma at 1 mg/kg, iv after 8 hrs", "format": "ADME, organism-based"}, "[38]": {"assay": "Tmax in Sprague-Dawley rat plasma at 10 mg/kg, po after 24 hrs", "format": "ADME, organism-based"}}}
{"smiles": "C=CC(=O)N1CCC[C@@H](n2nc(-c3ccc(OCc4ccccn4)c(Cl)c3)c3c(N)ncnc32)C1", "values": [{"measurement": "inhibition (INH)", "setting": "[1]", "result": "Not Active"}, {"measurement": "MRT inf", "setting": "[2]", "result": 12.6, "unit": "min"}, {"measurement": "inhibition (INH)", "setting": "[3]", "result": "Not Active"}, {"measurement": "half-life", "setting": "[4]", "result": 117, "unit": "min"}, {"measurement": "inhibition (INH)", "setting": "[5]", "result": "Not Active"}, {"measurement": "GI50", "setting": "[6]", "result": "> 10000", "unit": "nM"}, {"measurement": "Activity", "setting": "[7]", "result": 0.9, "unit": "%"}, {"measurement": "EC50", "setting": "[8]", "result": 7, "unit": "nM"}, {"measurement": "inhibition (INH)", "setting": "[9]", "result": "Not Active"}, {"measurement": "Activity", "setting": "[10]", "result": 0.05, "unit": "%"}, {"measurement": "IC50", "setting": "[11]", "result": 161, "unit": "nM"}, {"measurement": "Activity", "setting": "[12]", "result": 0, "unit": "%"}, {"measurement": "Activity", "setting": "[13]", "result": 0.1, "unit": "%"}, {"measurement": "Tmax", "setting": "[14]", "result": 1.02, "unit": "min"}, {"measurement": "AUC", "setting": "Rattus norvegicus [15]", "result": 405, "unit": "ng·h/mL"}, {"measurement": "clearance", "setting": "[16]", "result": 41.3, "unit": "mL/min/kg"}, {"measurement": "inhibition (INH)", "setting": "[17]", "result": "Not Active"}, {"measurement": "Activity", "setting": "[18]", "result": 0.7, "unit": "%"}, {"measurement": "inhibition (INH)", "setting": "[19]", "result": "Not Active"}, {"measurement": "Activity", "setting": "[20]", "result": 0.4, "unit": "%"}, {"measurement": "AUCt", "setting": "Rattus norvegicus [21]", "result": "404 to 2340", "unit": "ng/mL/h"}, {"measurement": "EC50", "setting": "[22]", "result": "< 10", "unit": "nM"}, {"measurement": "AUC", "setting": "Rattus norvegicus [23]", "result": 441, "unit": "ng·h/mL"}, {"measurement": "inhibition (INH)", "setting": "[24]", "result": "Active"}, {"measurement": "GI50", "setting": "[25]", "result": "> 10000", "unit": "nM"}, {"measurement": "MRT inf", "setting": "[26]", "result": 153, "unit": "min"}, {"measurement": "inhibition (INH)", "setting": "[27]", "result": "Not Active"}, {"measurement": "GI50", "setting": "[28]", "result": "> 10000", "unit": "nM"}, {"measurement": "IC50", "setting": "[29]", "result": 111, "unit": "nM"}, {"measurement": "Activity", "setting": "[30]", "result": 0, "unit": "%"}, {"measurement": "EC50", "setting": "[31]", "result": "< 10", "unit": "nM"}, {"measurement": "GI50", "setting": "[32]", "result": 3500, "unit": "nM"}, {"measurement": "IC50", "setting": "[33]", "result": 24.5, "unit": "nM"}, {"measurement": "inhibition (INH)", "setting": "[34]", "result": "Not Active"}, {"measurement": "bioavailability", "setting": "[35]", "result": 10.3, "unit": "%"}, {"measurement": "inhibition (INH)", "setting": "[36]", "result": "Not Active"}, {"measurement": "half-life", "setting": "[37]", "result": 18, "unit": "min"}, {"measurement": "Tmax", "setting": "[38]", "result": 34.8, "unit": "min"}]}
